US20220338473A1, “USE OF BENZYL ALCOHOL AS A HERBICIDE” (INNOVI, priority 2019, published 2022)

Assays:
Assay in all cases: Preventative activity (anti-germination), seeds on agar in Petri dish
Format in all cases: in vivo
Details in all cases: 0.35 g sprayed (benzyl alcohol pure, 700 L/Ha; glyphosate diluted at 0.5%)
[1] = tested on: Maize seeds
Protocol: (§1) The assays were carried out on seeds sown on a Petri dish with respectively a control mode, an assay with benzyl alcohol and an assay with glyphosate herbicide (Gallup® super 360, Barclay).
(§2) The application of the product is carried out with a trigger spray bottle which makes it possible to spray 0.35 g of product per spraying, as microdroplets.
(§3) Seeds are placed on an agar gel in Petri dishes. 16 barley seeds, 24 rapeseed seeds, 18 wheat seeds, 10 maize seeds, 10 soybean seeds are positioned for each test.
(§4) The seeds are sprinkled either with 0.35 g water (equivalent 700 L/Ha) including 0.35 g pure benzyl alcohol (PanReac AppliChem—ITW Reagents) (equivalent 700 L/Ha pure benzyl alcohol), or with 0.35 g water for the control, or with 0.35 g glyphosate diluted at 0.5% for the glyphosate test.
(§5) The plants are observed at 0 and 11 days. The percentage of germination is the percentage of germinated seeds evaluated after 11 days.

[2] = tested on: Barley seeds
Protocol: as §1, §2, §3, §4, §5

[3] = tested on: Wheat seeds
Protocol: as §1, §2, §3, §4, §5

[4] = tested on: Rapeseed seeds
Protocol: as §1, §2, §3, §4, §5

[5] = tested on: Soybean seeds
Protocol: as §1, §2, §3, §4, §5

[6] = tested on: Dandelion seeds

O=C(O)CNCP(=O)(O)O [Glyphosate, glyphosate, reference compound]
Percentage of germination at 11 days [1]: 100% | Percentage of germination at 11 days [2]: 100% | Percentage of germination at 11 days [3]: 100% | Percentage of germination at 11 days [4]: 100% | Percentage of germination at 11 days [5]: 100% | Percentage of germination at 11 days [6]: 83%
